“And” between values parts separate entries of the source, which are not always exact repeats. Identical values can stand only once. “Also recorded” adds a separate entry of the source.
Columns and labels:
[1] = biological target: NHP adrenal gland tissue; experiment: Competition binding assay against 10 nM [^18F]CETO; set-up: species or system cynomolgus monkey (non-human primate; details: residual binding of 10 nM [^18F]CETO, NHP adrenal gland tissue 200 µg/mL, 60 min, room temperature
Method: (§1) Normal NHP adrenal tissue was weighed and homogenized in 20 volumes of ice-cold 0.32 M sucrose and stored in aliquots at -80 °C until use. For the saturation binding study, the homogenate was further diluted to 20 µg/mL in the assay. Triplicates of each ligand concentration in the range of 0.03-30 nmol/L [^18F]CETO, with and without a competing ligand (1 µmol/L metomidate), were incubated at room temperature for 60 min. For the competition binding assay, 200 µg/mL of NHP adrenal gland tissue was used. Triplicate tubes, containing 10 nM [^18F]CETO were incubated for 60 min at room temperature with three competing ligands, MTO, FETO and CETO, at concentrations between 0 and 30 nmol/L, respectively.
(§2) The incubations were terminated by filtration under vacuum through Whatman GF/C glass fibre filters, using a cell harvester (Brandel, Gaithersburg, MD). The filters were washed four times with 3 mL PBS buffer and transferred to scintillation tubes where the trapped radioactivity was measured in an automated gamma counter (Wizard 2480, PerkinElmer Downers Grove, IL, USA).
(§3) The saturation study was repeated twice with normal NHP adrenal gland tissue and the results were used to calculate the equilibrium dissociation constant, Kd, and the total target density for the binding of [^18F]CETO, Bmax. Values for IC50, Bmax and Kd were estimated by GraphPad Prism 8.2, using non-linear regression of the binding curves.

[2] = PET/CT in non-human primate with kinetic modelling; assay type: in vivo, Macaca fascicularis; details: for time of peak uptake in the adrenal glands: SUVmean time-activity curves
Method: One female NHP, Macaca fascicularis, was obtained from the Astrid Fagræus Laboratory, Karolinska Institute, Comparative Medicine. The NHP was used to compare the [^18F]CETO and [^11C]MTO biodistribution and their uptake over time in adrenal and liver.
Ketamine (~10 mg/kg) was used as a sedative. Whilst being transported to the PET centre at Uppsala University Hospital, the NPH was weighed and maintained on iterated ketamine injections (15 mg/kg/h). Saturation levels were continuously measured through pulse oximetry, and oxygen administered as needed.
At the PET centre, the NPH was intubated under propofol-induced anaesthesia. General anaesthesia was maintained by sevoflurane inhalation (1.5 - 5.0%) and artificial ventilation. Two venous catheters were placed - one for blood sampling and one for tracer administration. Body temperature, heart rate, ECG, pCO2, pO2, SaO2 and blood pressure levels were monitored throughout the PET study. A General Electric Discovery MI PET/CT scanner (GE Healthcare, Milwaukee, USA) was used.
PET/CT positioning was determined by using a scout CT scan, and 6.5 MBq/kg of [^11C]MTO was administered I.V. through the catheter. A baseline dynamic 90 min PET scan over the abdomen was started. After a sufficient waiting period, to allow for the radioactive decay of carbon-11, 4.2 MBq/kg of [^18F]CETO was injected I.V. A 90 min baseline dynamic PET scan was started and was followed by a 15 min whole-body PET examination. Thereafter, a blockage study was performed by administering 0.5 mg/kg etomidate I.V. for 20 min. At the end of etomidate administration, corresponding to approximately 150 min after the baseline [^18F]CETO injection, 19.3 MB/kg of [^18F]CETO was administered I.V., followed by a 90 min dynamic PET scan. The amount of radioactivity used in the blocking study was nearly fivefold that used during the baseline PET examination, in order to render any remaining activity from the baseline scan negligible. During both [^18F]CETO PET scans, discrete venous blood samples (~2 mL) were collected in heparinized tubes at 5, 10, 20, 40 and 80 min p.i. (3 mL at the last time point) of [^18F]CETO to measure radioactivity in whole blood and in plasma and for metabolite analysis. PET images were reconstructed using an ordered-subsets maximisation (OSEM) algorithm including time-of-flight information and resolution recovery. Dynamic images were reconstructed into time frames with increasing durations.
In the PET images, volumes of interest (VOIs) were drawn over representative subsets of aorta, adrenals, kidneys, liver, lungs, pancreas and spleen and transferred to all dynamic time frames to obtain time-activity curves (TACs), showing SUV as a function of time, after normalization to injected activity per body weight. Plasma TACs were determined by multiplying the aorta TAC with the mean plasma-to-whole blood ratio of the five analysed blood samples. Then, a metabolite-corrected input curve, representing intact tracer in plasma, was calculated by multiplying the plasma TAC with a sigmoid fit to the measured parent fraction data.
Adrenal time-activity curves were fitted using single-tissue as well as irreversible and reversible two-tissue compartment models. The optimal model to describe the data was determined using the Akaike information criterion. In addition, data were analysed using the Patlak and Logan graphical analysis methods, assuming irreversible and reversible kinetics, respectively. Additionally, whole-body net uptake rate parametric images were calculated using the Patlak method.

[3] = Ex-vivo organ distribution in rats; set-up: species or system Sprague Dawley rats
Method: A biodistribution study for [^18F]CETO was performed in thirty Sprague Dawley rats. A dose of 5.4±0.9 MBq [^18F]CETO was injected as a bolus in the lateral tail vein, to un-sedated rats. Three rats of each gender were then euthanized by high concentrations of CO2, at five predetermined time points; 10, 30, 60, 120 and 240 min post injection (p.i.), respectively, and their organs were harvested and weighed. Radioactivity content in the organs was measured in a well-type NaI(Tl) scintillation counter, applying correction for dead-time and for decay. The organ radioactivity readings were decay-corrected to the time of injection, and results were expressed as standardized uptake values (SUV).

[4] = PET-MRI in rats with and without metomidate blocking; assay type: in vivo, Sprague Dawley rats
Description: Sevoflurane inhalation was used for the induction and maintenance of anaesthesia, and an intravenous catheter was placed in the lateral tail vein. After the investigations, the mice/rats were euthanized and their organs harvested and weighed, followed by measurement of radioactivity (as previously described). PET and MRI images were acquired on a Nanoscan PET-3TMRI scanner (Mediso Mediso, Medical Imaging Systems, Budapest, Hungary).
Two male Sprague Dawley rats were positioned on the heated bed of the scanner and a dynamic PET acquisition of the abdomen was initiated immediately before injection of 4-5 MBq of [^18F]CETO. Metomidate (1 µmol/kg) was co-injected in one of the rats as a blocker. The dynamic PET scan was continued for 60 min and was followed by a whole-body static scan, 3 beds, 5 min per bed position ~90 min post injection, and by MRI of the abdomen.
PET acquisition was initiated and 4.0-4.8 MBq of […] was intravenously administered. One of the rats was given metomidate (1 µmol/kg) I.V., for a blockage study. An initial dynamic PET scan of the abdomen was performed for 60 min, followed by a baseline whole body PET scan for 15 min.

[5] = tested on: CYP11B1 and CYP11B2 in NHP adrenal gland homogenate; experiment: Saturation binding of [^18F]CETO in adrenal gland homogenate; set-up: species or system cynomolgus monkey (non-human primate; details: saturation study
Method: as §1, §2, §3

[6] = Radio metabolite analysis of [^18F]CETO in NHP plasma; assay type: in vivo, Macaca fascicularis; details: for intact [^18F]CETO: NHP venous plasma
[7] = tested on: human adrenal tumours and normal adrenal gland; experiment: Frozen section autoradiography; assay type: binding; details: 0.03 nmol/L [^18F]CETO, 60 min
Method: Tissues from normal human adrenal glands, liver, kidney, spleen and small intestine were used along with samples of different types of adrenal tumours, aldosterone-producing adenomas (APA), cortisol-producing adenomas (CPA), ACC, and pheochromocytoma (PCC). Normal adrenal gland tissues and spleen tissues from non-human primates (NHPs) were also utilized.
Specimens for autoradiography were prepared from snap-frozen tissue, stored at -70 °C, and divided by a cryotome into 20 μm thick slices. The slices were placed on Superfrost^TM glass slides and stored at -20 °C until the autoradiographic examination. Slides were pre-incubated at room temperature for 20 min in a PBS buffer. Duplicate slides were incubated in 0.03 nmol/L [^18F]CETO for 60 min, in the presence or absence of an excess of metomidate (0.45 µmol/L) to block the specific binding of [^18F]CETO. After incubation, slides were washed for 3 × 3 min in cold PBS buffer, followed by rapid immersion in water. Slides were then dried for 10 min at 37 °C and exposed to Super Resolution Storage Phosphor Screens (PerkinElmer, Downers Grove, IL, USA) for >240 min and scanned in a Cyclone Plus Phosphor Imager (PerkinElmer, Model C431200, Downers Grove, IL, USA).

[8] = Observation of adverse effects after tracer injection, NHP; assay type: in vivo, Macaca fascicularis; details: recovery post-anaesthesia
Description: After the imaging sessions, the NHP was wakened and de-intubated and, once stable, transported back to its living facility.

[9] = tested on: normal NHP adrenal tissue; experiment: In vitro association/dissociation kinetics (LigandTracer); set-up: species or system cynomolgus monkey (non-human primate; details: 1:1 kinetic binding model, NHP adrenal homogenate
Method: To determine the in vitro kinetics for association and dissociation of [^18F]CETO to normal NHP adrenal tissue, 20 µL of homogenate, corresponding to 40 µg of adrenal, was pipetted to a Poly-D-lysine coated cell dish (CELLCOAT™, Greiner Bio-One GmbH, Austria) and allowed to dry for 15 min. Subsequently, the dishes were placed in the inclined rotating holder of a LigandTracer™ yellow instrument (Ridgeview Instruments AB, Uppsala, Sweden) and [^18F]CETO was added with concentrations ranging from 1 to 5 nM to measure the association rate. A higher concentration was added when the previous concentration had reached equilibrium. To measure the dissociation rate, the radioactive solution was replaced with buffer after the highest concentration reached equilibrium. Data were analyzed with TraceDrawer software (Ridgeview Instruments AB, Uppsala, Sweden) and the association rate constant (kon), dissociation rate constant (koff) and equilibrium dissociation constant (KD) were computed using a 1:1 kinetic binding model.

[10] = Observation of adverse effects after tracer injection, rats; details: rats following [^18F]CETO injection

For C[C@H](c1ccc(Cl)cc1)n1cncc1C(=O)OCCF [CETO], the IC50 [1] was 5 nM.
Molecule C[C@H](c1ccccc1)n1cncc1C(=O)OCCF [FETO] has an IC50 [1] of 3 nM.
With COC(=O)c1cncn1C(C)c1ccccc1 (centres unmarked) [MTO, metomidate] the IC50 [1] was 2 nM.
In the case of C[C@H](c1ccccc1)n1cncc1C(=O)O[11CH3] [[^11C]MTO, [^11C]Metomidate, reference compound], the highest adrenal-to-liver ratio ([2]; NHP, 40 minutes p.i.) is reported as 1.5 and the “time of peak uptake in the adrenal glands” value (“time of peak uptake” below) ([2]; NHP) is reported as “approximately 40 min p.i”.
In the case of C[C@H](c1ccc(Cl)cc1)n1cncc1C(=O)OCC[18F] [[^18F]CETO, para-chloro-2-[^18F]fluoroethyl-etomidate], the “time of peak uptake” value ([3]; ex-vivo biodistribution) is reported as 2 hr p.i, the “uptake in all other organs and tissues (SUV)” value ([3]; other than adrenal glands and early lungs and pancreas, bone and urinary bladder are exceptions) is reported as ~1 SUV and the highest adrenal-to-liver ratio ([2]; NHP, 85 min p.i.) is reported as > 5. For the same molecule, the “time of peak uptake” value ([2]; NHP) was > 85 min p.i, the “rate constant k3 in the adrenal glands after blocking” value ([2]; NHP, after etomidate 0.5 mg/kg, irreversible two-tissue compartment model) was “reduced to zero” and the route of elimination ([2]; NHPs) was “mainly renal”. For the same molecule, the route of elimination [4] was “mainly renal”, the “time of peak adrenal uptake” value [4] was 120 min p.i and the Bmax [5] was 0.0082 to 0.0097 nmol/mg. For the same molecule, the Kd ([5]; room temperature, 60 min, read-out: equilibrium dissociation constant, Kd) was 0.66 nM and 0.66 to 0.67 nM and 0.67 nM, the Bmax ([5]; separate experiments A and B) was 0.0097 nmol/mg and 0.0082 nmol/mg and the “intact [^18F]CETO” value ([6]; 5 min p.i.) was 56%. For the same molecule, the “intact [^18F]CETO” value ([6]; 80 min p.i.) was 11%, the “[^18F]CETO share of radioactivity in plasma” value ([6]; NHP, final observation time point 90 min p.i.) was “approximately 10%” and the half-life ([6]; female, cynomolgus monkey, plasma, intravenous, NHP, bi-phasic metabolism, read-out: plasma half-life, fast first phase) was ~10 min. For the same molecule, the “uptake in APAs compared to that of the normal adrenal gland” value [7] was “approximately threefold”, the adverse effects [8] was “no adverse effects” and the koff [9] was 0.00035 s⁻¹. The Kd ([9]; read-out: Kd value derived from the rate constants) was 0.59 nM and the adverse effects [10] was “No adverse effects”.
For C[C@H](c1ccccc1)n1cncc1C(=O)OCC[18F] [[^18F]FETO, 2-[^18F]fluoroethyl-etomidate], the “blocking of adrenal uptake with metomidate” value ([4]; metomidate 1 µmol/kg) was “unable to block; also recorded: not possible to block”.
